For test [1], the target named is T1, Serine/threonine-protein phosphatase 5 (Rattus norvegicus) (UniProt P53042).
T1 sequence (whole entry): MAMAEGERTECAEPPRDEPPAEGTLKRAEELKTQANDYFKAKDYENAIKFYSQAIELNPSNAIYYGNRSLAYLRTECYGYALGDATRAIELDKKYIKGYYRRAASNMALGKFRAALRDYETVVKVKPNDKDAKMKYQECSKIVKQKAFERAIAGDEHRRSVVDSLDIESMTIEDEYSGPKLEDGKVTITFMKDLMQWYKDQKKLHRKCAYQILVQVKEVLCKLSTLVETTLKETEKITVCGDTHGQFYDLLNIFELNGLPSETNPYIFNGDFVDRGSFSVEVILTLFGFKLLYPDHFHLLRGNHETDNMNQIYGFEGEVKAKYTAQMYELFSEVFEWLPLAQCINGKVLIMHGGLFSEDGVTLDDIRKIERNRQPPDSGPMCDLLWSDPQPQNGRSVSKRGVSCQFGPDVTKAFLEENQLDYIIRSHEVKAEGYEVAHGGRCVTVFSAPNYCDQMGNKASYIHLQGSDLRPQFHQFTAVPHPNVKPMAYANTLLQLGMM
Nature of the test: Activation of rat PPP5C (428 to 430 residues) phosphatase domain expressed in Escherichia coli BL21-codonplus (DE3)-RIL cells using para-nitrophenyl phosphate as substrate assessed as fold change in maximum efficacy at 10^5 nM. The note with it: filed as activator, dose 1.0 10^5nM.

Test [2] deals with T1, Serine/threonine-protein phosphatase 5 (Rattus norvegicus). Nature of the test: Activation of rat PPP5C (428 to 430 residues) phosphatase domain expressed in Escherichia coli BL21-codonplus (DE3)-RIL cells using para-nitrophenyl phosphate as substrate assessed as fold increase at 10^5 nM. The conditions noted are these: filed as activator, dose 1.0 10^5nM.
In test [3] the target is T2, Serine/threonine-protein phosphatase 5 (Rattus norvegicus, UniProt P53042).
T2 sequence (P53042 whole entry): T1 sequence (whole entry)
As to the kind of experiment: Binding affinity to rat PPP5C (428 to 430 residues) phosphatase domain expressed in Escherichia coli BL21-codonplus (DE3)-RIL cells using para-nitrophenyl phosphate as substrate assessed as dissociation constant at 10^5 nM.

The target in test [4] is T3, Serine/threonine-protein phosphatase 5 (Homo sapiens, UniProt P53041).
T3 sequence (P53041 whole entry): T1 sequence (whole entry) with E22D, T24A, N128H, S140N, R158K, T189S, D193E, C221S, V397I, Q419N
Nature of the test: Activation of PPP5C (unknown origin) TPR domain.

Test [5] deals with T3, Serine/threonine-protein phosphatase 5. Nature of the test: Inhibition of PPP5C (unknown origin) phosphatase domain.
Test [6] shares this target. Nature of the test: Inhibition of MBP fused recombinant human PPP5C phosphatase domain expressed in Escherichia coli using DiFMUP as substrate.
Test [7] in a line: Inhibition of PP1 (unknown origin) phosphatase domain. Further details: species or system Homo sapiens.
The nature of test [8]: Inhibition of bovine blood PP2A phosphatase domain expressed in Escherichia coli using DiFMUP as substrate. The format is tissue-based, Bos taurus.
The target in test [9] is T4, Serine/threonine-protein phosphatase 5 (Homo sapiens) (UniProt P53041).
T4 sequence (whole entry): T1 sequence (whole entry) with E22D, T24A, N128H, S140N, R158K, T189S, D193E, C221S, V397I, Q419N
Nature of the test: Activation of PPP5C (unknown origin) TPR domain assessed as fold change. The note with it: filed as activator.

In test [10] the target is T4, Serine/threonine-protein phosphatase 5 (Homo sapiens). Nature of the test: Activation of Histidine-tagged human PPP5C TPR domain assessed as fold change at 10^5 nM. The conditions noted are these: filed as activator, dose 1.0 10^5nM.
Test [11] has the same target. As to the kind of experiment: Inhibition of N-terminally 6His-tagged full-length human PPP5C (1 to 499 residues) TPR domain expressed in Escherichia coli Rosetta gami2 (de3) pLysS cells using pNPP as substrate at 10^6 nM preincubated for 10 mins followed by substrate addition and measured for 60 mins relative to control. The note with it: dose 1.0 10^6nM, time 70.0 min.

The nature of test [12]: Inhibition of PP6 (unknown origin) phosphatase domain. On the set-up: species or system Homo sapiens.
The nature of test [13]: Inhibition of PP3 (unknown origin) phosphatase domain. Further details: species or system Homo sapiens.
Test [14] in a line: Inhibition of PP4 (unknown origin) phosphatase domain using phosphohistone as substrate. On the set-up: species or system Homo sapiens.
Test [15] in a line: Inhibition of PP2A (unknown origin) phosphatase domain. On the set-up: species or system Homo sapiens.
Test [16] deals with T5, Serine/threonine-protein phosphatase 4 catalytic subunit (Homo sapiens, UniProt P60510).
T5 sequence (P60510 whole entry): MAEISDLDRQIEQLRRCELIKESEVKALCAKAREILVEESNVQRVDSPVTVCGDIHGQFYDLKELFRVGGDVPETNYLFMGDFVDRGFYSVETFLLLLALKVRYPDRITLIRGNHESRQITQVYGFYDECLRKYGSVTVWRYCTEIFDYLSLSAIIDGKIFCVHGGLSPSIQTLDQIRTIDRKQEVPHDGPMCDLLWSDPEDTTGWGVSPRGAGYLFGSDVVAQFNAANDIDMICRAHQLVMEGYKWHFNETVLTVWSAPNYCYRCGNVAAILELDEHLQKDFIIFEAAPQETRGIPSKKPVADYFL
Nature of the test: Inhibition of PP4 (unknown origin) phosphatase domain.

Test [17] addresses T6, Serine/threonine-protein phosphatase with EF-hands 1 (Homo sapiens, UniProt O14829).
T6 sequence (O14829 whole entry): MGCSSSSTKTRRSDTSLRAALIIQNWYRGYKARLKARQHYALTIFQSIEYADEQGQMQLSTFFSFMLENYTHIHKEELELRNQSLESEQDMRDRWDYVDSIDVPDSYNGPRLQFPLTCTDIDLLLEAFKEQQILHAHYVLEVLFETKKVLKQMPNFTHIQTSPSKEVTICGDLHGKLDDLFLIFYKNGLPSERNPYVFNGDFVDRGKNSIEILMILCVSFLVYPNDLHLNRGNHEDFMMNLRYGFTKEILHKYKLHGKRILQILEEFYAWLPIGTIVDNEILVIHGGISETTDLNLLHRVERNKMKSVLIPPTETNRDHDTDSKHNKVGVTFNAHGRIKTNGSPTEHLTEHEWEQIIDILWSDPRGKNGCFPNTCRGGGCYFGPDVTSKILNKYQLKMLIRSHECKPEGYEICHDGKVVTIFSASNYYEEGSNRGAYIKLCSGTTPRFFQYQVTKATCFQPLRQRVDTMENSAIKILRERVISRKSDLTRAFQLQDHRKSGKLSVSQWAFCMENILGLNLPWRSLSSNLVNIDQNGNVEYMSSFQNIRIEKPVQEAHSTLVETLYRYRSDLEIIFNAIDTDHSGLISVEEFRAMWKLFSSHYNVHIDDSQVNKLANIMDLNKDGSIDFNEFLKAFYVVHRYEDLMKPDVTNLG
As to the kind of experiment: Inhibition of PP7 (unknown origin) phosphatase domain.

Test [18] can be described thus: Inhibition of PP2A (unknown origin) phosphatase domain using phosphohistone as substrate. Further details: species or system Homo sapiens.

Residue numbers refer to the chain shown, from its start. Starred links: 1 amine or outer side, 2 acyl side, 3 side chain; linkers in the order of their positions; H or OH if unused. Positions of bridges follow the written chain, without caps; N, C: chain ends. Non-standard residues stand in square brackets, D forms with d. Residues, ends and D or L forms follow the SMILES beside them. Adda = CO[C@@H](Cc1ccccc1)[C@@H](C)/C=C(C)/C=C/[C@H](N[*:1])[C@H](C)C(=O)[*:2]; dAsp(3S-Me) = C[C@H](C(=O)[*:3])[C@@H](N[*:1])C(=O)[*:2]; d(γGlu) = O=C(O)[C@@H](CCC(=O)[*:2])N[*:1]; NMeDha = C=C(NC)C(=O)O

In the case of `COc1ccc(-c2nc(Cc3ccc(Cl)cc3)no2)cc1OC`, the fold change (FC) came to 3.9 in test [1] and 3.2 in test [2]. Further, in test [3], the Kd (as a rule, the free concentration of one partner at which half of the binding sites on the other are occupied at equilibrium, for simple one-to-one binding) worked out at 7800 nM.
Regarding `O=C(O)CCCCCCCCCCCC[C@H]1C=CCC1`, the EC50 – broadly, the midpoint of the concentration-response curve – in [4] was 134000 nM.
`CCCCO[C@H]1C[C@@H]2O[C@H]1[C@@H](C(=O)O)[C@H]2C(=O)O`: 700 nM corresponded to half-maximal inhibition in test [5] (IC50).
For the molecule `CN1CCN(C(=O)[C@H]2[C@@H](C(=O)O)[C@@H]3CC[C@H]2O3)CC1`, the 50% inhibitory concentration (IC50) (commonly the concentration at which inhibition is half-maximal) in [6] was found to be 1800 nM; in [7], 2.4 nM; in test [8], 400 nM.
The molecule `C[C@H]1C[C@@H]2O[C@H]1[C@@H](C(=O)O)[C@H]2C(=O)O` returned an IC50 in test [5] of 1000 nM.
As to `CCCCC/C=C\C/C=C\C/C=C\C/C=C\CCCC(=O)O`, the fold change (FC) in test [9] worked out at 1.5.
For `Cc1ccc(C(=O)Nc2ccc(S(=O)(=O)O)c3cc(S(=O)(=O)O)cc(S(=O)(=O)O)c23)cc1NC(=O)c1cccc(NC(=O)Nc2cccc(C(=O)Nc3cc(C(=O)Nc4ccc(S(=O)(=O)O)c5cc(S(=O)(=O)O)cc(S(=O)(=O)O)c45)ccc3C)c2)c1`, in test [10], the fold change (FC) turned out to be 4.
For `Nc1ccc(-c2nc3ccc(-c4nc5ccc(N)cc5[nH]4)cc3[nH]2)cc1`, the inhibition (as a rule, the relative decrease from the control value, in per cent) in test [11] was more than 40%.
Regarding `C[C@@]12C(=O)OC(=O)[C@]1(C)[C@H]1CC[C@@H]2O1` [CANTHARIDIN], the IC50 was 8000 nM in test [12]; more than 500000 nM in [13]; 1700 nM in test [7]; 50 nM in test [14]; 160 nM in test [15].
The molecule `CC(C)(COP(=O)(O)OP(=O)(O)OC[C@H]1O[C@@H](n2cnc3c(N)ncnc32)[C@H](O)[C@@H]1OP(=O)(O)O)[C@@H](O)C(=O)NCCC(=O)NCCS` [COENZYME_A] registered a concentration for a half-maximal effect (EC50) in test [4] of 1000 nM.
In [5], `O=C1OC(=O)C2C3CCC(O3)C12` (stereo not given) [DEMETHYL-CANTHARIDIN] came in with an IC50 of 1000 nM.
Consider `C[C@@](O)(/C=C/[C@H]1CC=CC(=O)O1)[C@@H](C[C@@H](O)\C=C/C=C\C=C\CO)OP(=O)(O)O` [FOSTRIECIN], for which the IC50 in test [12] was 10 nM; in [13] it was more than 100000 nM; in test [7] it was more than 100000 nM; in test [16], 3 nM; in test [17] it was more than 1000 nM; in [15], 1.5 nM. For the same molecule, the IC50 in test [5] is more than 1000 nM.
Take `C=C1C(=O)N[C@H](C)C(=O)N[C@@H](CC(C)C)C(=O)N[C@@H](C(=O)O)[C@H](C)C(=O)N[C@@H](CCCNC(=N)N)C(=O)N[C@@H](/C=C/C(C)=C/[C@H](C)[C@H](Cc2ccccc2)OC)[C@H](C)C(=O)N[C@@H](C(=O)O)CCC(=O)N1C` [MICROCYSTIN-LR] (R[Adda][d(γGlu)][NMeDha][dA]L[dAsp(3S-Me)]-OH; lactam N-7): the IC50 in [13] turned out to be 200 nM; in test [7] it was 1.7 nM; in test [18] it was 0.04 nM; in [14], 0.15 nM.

The values above are taken from ChEMBL document CHEMBL5325417, “Dual function of protein phosphatase 5 (PPP5C): An emerging therapeutic target for drug discovery” (Eur J Med Chem, 2023).
